Data on 89 compounds can be found in a melting point compilation (Tetko et al.; mined from patent text by program, amines drawn as free bases though some values may be those of a salt).

Consider `O=C(N[C@H]1CCCNC1=O)c1ccc(F)cc1F`, for which the melting point lay in the range of 140 to 141 °C.

Regarding `CCCCN1C(=O)NC(CC(=O)O)C1=O` (centres undefined), the melting point was 132 °C.

`CC(=O)OCC1OC(n2cc(Cc3ccc(OC(F)(F)F)cc3)c3c(Cl)cccc32)C(OC(C)=O)C(OC(C)=O)C1OC(C)=O` (centres undefined): the melting point was 193 to 194 °C.

As for `CCOC(=O)c1c(-c2ccccc2C)c2cc(Cl)ccc2oc1=O`, the melting point is 65 to 66 °C.

Compound `CCCCCCC=CCC1CC(=O)N(c2cc(Cc3n[nH]c(=O)c4ccccc34)ccc2F)C1=O` (centres undefined) yielded a melting point of 146 to 149 °C.

On to `CCCCOC(=O)CN(C(=O)C(F)(F)F)C(N1CCOCC1)P(=O)(O)OSc1ccc(Cl)cc1` (centres undefined), for which the melting point was 79.5 to 81 °C.

With `O=C(Nc1ccnc(Br)c1)C1(O)CCCC1`, the melting point stood at 153 °C.

In turn, `COc1cccc(CCc2ccccc2OC[C@H]2CCCN(C(=O)OC(C)(C)C)C2)c1` yielded a melting point of 150 to 152 °C.

In turn, `O=c1[nH]c2ccc3c(c2[nH]c1=O)CNCC3` displayed a melting point of 294 to 297 °C.

In the case of `N#Cc1c(-c2ccc(N)cc2)cc(-c2ccccc2O)nc1NC(=O)c1cccs1`, the melting point fell in the range of 292 to 293 °C.

On to `CC1(C)CC(O)CC(C)(C)N1N=Nc1ccccc1`, for which the melting point fell in the range of 68 to 70 °C.

The compound `Cn1cc(C2CCC(=O)C2)c2cc(F)ccc21` (centres undefined) gave a melting point of 104 to 105 °C.

In turn, `CCOC(=O)C(C)(C)Oc1ccc(-c2ccc(CCNC(=O)Cc3ccccc3)cc2)cc1` had a melting point of less than 20 °C.

Turning to `COc1ccc(-c2c(C#N)nn(-c3c(Cl)cc(C(F)(F)F)cc3Cl)c2N)cc1`, the melting point is 222 °C.

Consider `COc1ccc(N2CCc3ccccc32)c([N+](=O)[O-])c1`, for which the melting point is 88 to 90 °C.

For `CCn1nc(-c2ccccc2)c(C(C)=O)c(Nc2cccc3nc(C)ccc23)c1=O`, the melting point fell in the range of 204 to 205 °C.

`CCc1cc(S(=O)(=O)C(Br)(Br)Br)ccc1C(N)=O` displayed a melting point of 175 to 177 °C.

For `O=C1NCN2CCC1CC2`, the melting point lay within 125 to 126 °C.

Consider `O=c1cc(-c2ccncc2)nc2n1CC(O)CN2CCCc1ccccc1F` (centres undefined), for which the melting point lay in the range of 305 to 307 °C.

`CCCC(COS(C)(=O)=O)(OC(C)C)c1ccc(Cl)cc1Cl` (centres undefined) came in with a melting point of 58 to 61 °C.

`CCCSc1ncc(CC(NC(=O)CCC)C(=O)O)n1Cc1ccccc1Cl` (centres undefined): the melting point was 178 to 181 °C.

With `Cc1c(F)c(F)cc(F)c1C(=O)O`, the melting point is 104 to 105 °C.

In turn, `CCN(CC)c1ccc(NC(=O)c2ccc(C)c(Nc3nccc(-c4cccnc4)n3)c2)cc1C(F)(F)F` returned a melting point of 128 to 131 °C.

As to `CCCCC1(N2CCCC2)CCC(c2[nH]c3ccccc3c2CCc2ccncc2)CC1` (centres undefined), the melting point is 165 to 175 °C.

In turn, `O=C(N[C@@H](Cc1ccccc1)C[C@H](O)[C@H](Cc1ccccc1)NC(=O)OCc1cscn1)OCc1cscn1` yielded a melting point of 64 to 66 °C.

`CCOP(=O)(OCC)C(c1ccc2cc(O)ccc2c1)P(=S)(OCC)OCC` (centres undefined): the melting point lay within 85.5 to 86.5 °C.

Regarding `COC(=O)C(Cl)(C(=O)OC)[C@@H](C[N+](=O)[O-])c1ccccc1`, the melting point lay within 175 to 177 °C.

The compound `CN(C(=O)Cc1ccc(Cl)c(Cl)c1)[C@@H]1CCC(=O)C[C@H]1N1CCCC1` (relative stereo) registered a melting point of 148 to 149 °C.

Regarding `N#CCCCOc1ccc(/C=C/C(=O)O)c(Oc2ncc(C(F)(F)F)cc2Cl)c1`, the melting point lay in the range of 183 to 185 °C.

For `Oc1ccc(-c2nc3ccccc3o2)cc1`, the melting point amounted to 253 °C.

The compound `CCNc1cc([N+](=O)[O-])ccc1OCCOC` came in with a melting point of 83 to 87 °C.

As for `CC(C)(C)OC(=O)C[C@@H]1C[C@@H](COc2ccc(-c3ccc(C(=N)NC(=O)OCc4ccccc4)cc3)cc2)NC1=O`, the melting point fell in the range of 136 to 140 °C.

`COc1cc(-c2cc(F)cc(C#N)c2)cc2c1NC(=O)OC2(C)C` registered a melting point of 252 to 253 °C.

For the compound `Ic1cccc2c(SSc3cccc4c(I)cccc34)cccc12`, the melting point lay in the range of 202 to 203 °C.

In the case of `CCOC(=O)c1sc(-c2ccc(C#N)cc2)nc1CO`, the melting point was more than 250 °C.

`CCCc1c(OCCCOc2ccc([C@H]3OC(=O)C[C@H]3C)cc2)ccc(C(C)=O)c1O` registered a melting point of 88.5 to 89.5 °C.

Consider `COCCCNc1ccc(S(N)(=O)=O)cn1`, for which the melting point was 129 to 132 °C.

As to `Cn1c2c(c3cccc(C#N)c31)C(=O)NCC2`, the melting point lay in the range of 230 to 231 °C.

`Cc1cc(O)ccc1S(C)(=O)=O` displayed a melting point of 105 °C.

Compound `O=C1CCCc2ccc(OCc3ccc(Cl)c(Cl)c3)cc21` had a melting point of 122 to 123 °C.

In turn, `Cc1cc(O)cc2c1CCC2(C)C` displayed a melting point of 80 to 81 °C.

On to `CCCOc1cccc(-c2ccc3c(c2)C=C(C(=O)Nc2ccc(CN(C)C4CCOCC4)cc2)CCS3(=O)=O)c1`, for which the melting point fell in the range of 219 to 221 °C.

Turning to `NNC(=O)C(=O)N(NC(=O)c1cc(Cl)ccc1O)C(=O)c1ccccc1O`, the melting point was more than 330 °C.

In the case of `Cc1cnn(C(C)C(=O)N(C)C)c1-c1ccccc1` (centres undefined), the melting point was in the range of 88 to 90 °C.

`Cc1ccc(OCCC(C(=O)O)c2ccccc2)c2ccccc12` (centres undefined): the melting point lay within 130 to 132 °C.

`CN1CCc2cc(Br)[nH]c2C(c2ccccc2)C1` (centres undefined) yielded a melting point of 132 to 133 °C.

The compound `COc1ccc(-c2ccc(C(=O)O)cc2)cc1` yielded a melting point of 250 to 254 °C.

Consider `COc1ccc(C)cc1NC(=O)Nc1ccc(N2CCN(C(=O)Nc3ccc(OCCO)cc3C(F)(F)F)CC2)nc1`, for which the melting point lay in the range of 198 to 200 °C.

As for `BrCc1cccc2c(-c3ccccc3)c(Br)oc12`, the melting point was in the range of 135 to 138 °C.

`CCCNc1nc(N)c2ncn(C3C=CCCC3)c2n1` (centres undefined) returned a melting point of 73 to 80 °C.

On to `Cc1oc(-c2ccccc2)nc1COc1ccc(COc2ccc(Br)cc2CC(=O)O)cc1`, for which the melting point was in the range of 162 to 163 °C.

For the compound `CCN(CC)c1nc2ccccc2n2c(C)nnc12`, the melting point lay in the range of 123 to 125 °C.

`COc1ccc(C(O)c2cccc(OCc3ccccc3)c2)cc1` (centres undefined): the melting point lay in the range of 50 to 60 °C.

In the case of `CCOC(=O)c1cn(CC)c2oc(CN3CCOCC3)cc2c1=O`, the melting point lay within 229 to 231 °C.

Take `CC(=O)OCC(=O)c1ccc(C)cc1`: the melting point is 85 °C.

Compound `O=C(c1c(F)cccc1F)N1COCN(c2ccc(S(=O)C(F)(C(F)(F)F)C(F)(F)F)cc2F)C1=O` (centres undefined) registered a melting point of 40 to 45 °C.

`CC1(C)N=C(Oc2ccnc(O)c2)c2cc(C#N)ccc2O1` came in with a melting point of 275 to 278 °C.

`CS(=O)(=O)c1c(F)cc(C2=C(c3ccccc3)C(=O)OC2)cc1F` returned a melting point of 204 °C.

Take `CC(=O)N1c2ccccc2CC1C(N)=NO` (centres undefined): the melting point is 204 to 205 °C.

Take `COc1cc(OC)nc(Oc2cccc3c2C(=O)OC3Oc2ccccc2)n1` (centres undefined): the melting point lay within 155 to 157 °C.

Compound `CCOC(=O)c1cc2c(cn1)[nH]c1ccc(S(=O)(=O)N(C)C)cc12` returned a melting point of 310 to 311 °C.

In turn, `COC(=O)c1cccc(C=C2COc3ccc(OCc4ccccc4)cc3C2=O)c1` registered a melting point of 109 to 112 °C.

For the compound `COC(=O)C(=C(C)C)N1CC(N2C(=O)c3ccccc3C2=O)C1=O` (centres undefined), the melting point is 127 to 128 °C.

Turning to `CC(C)Cn1cccc1C(=O)C(C#N)C(=O)Nc1ccccc1` (centres undefined), the melting point fell in the range of 134 to 136 °C.

Turning to `CCC1C(c2cccnc2Cl)=NOC1(C)O` (centres undefined), the melting point worked out at 71 °C.

In turn, `Nc1nc(Nc2ccc(S(N)(=O)=O)cc2)sc1C(=O)c1sc(Br)cc1Br` gave a melting point of 254 to 255 °C.

Consider `NNc1nc(N)c2ncn(COCCO)c2n1`, for which the melting point fell in the range of 220 to 222 °C.

Consider `CC1(C)CC(=O)c2c(nc(C3CCCC3)c(C(=O)c3ccc(C(F)(F)F)cc3)c2-c2ccsc2)C1`, for which the melting point was in the range of 236 to 238 °C.

In turn, `COCCNC1CCN(c2ccc(NC(=O)c3cnn(-c4ccc(Cl)cc4)c3C)cc2C#N)CC1` came in with a melting point of 194 °C.

For `O=C(Nc1ccc(S(=O)(=O)c2ccccn2)cc1)C(O)(C(F)(F)F)C(F)(F)F`, the melting point was in the range of 199 to 200 °C.

`Cc1c(Br)c(=O)n(C2CCCC2)c2nc(Nc3ccccn3)ncc12` displayed a melting point of 267 to 268 °C.

`CCOC(=O)Cn1[nH]c(=O)c2ccccc2c1=O`: the melting point was in the range of 68 to 70 °C.

Regarding `O=Cc1ccc(O)c2ccsc12`, the melting point came to 204 °C.

On to `O=C1[C@H](CC[C@H](O)c2ccc(F)cc2)[C@@H](c2ccc(Br)cc2OCc2ccccc2)N1c1ccccc1`, for which the melting point was found to be 114 °C.

With `CCCCCCCCCCCCCCN(C(=O)CCCCCCCCCCC)C1(N)OC(CO)C(O)C(O)C1C(=O)C(N)C(=O)CNC` (centres undefined), the melting point came to 116 °C.

`COC(=O)Nc1cn2ccc(Sc3ccccc3)cc2n1` yielded a melting point of 221 to 223 °C.

The compound `N#Cc1ccc(-c2nc(C(F)(F)F)c(C(=O)O)s2)cc1` displayed a melting point of 195 to 196 °C.

In turn, `ClCCCc1nc2ccccn2n1` showed a melting point of 56.5 to 57 °C.

On to `CCN1CC2CCCC2C1CNC(=O)c1cc(S(N)(=O)=O)ccc1OC` (centres undefined), for which the melting point turned out to be 232 °C.

`CC(C)(C)OC(=O)NCCNC(=O)c1ncccc1Oc1ccc(Cl)cc1` had a melting point of 120 to 122 °C.

`CCOC(=O)c1cnc(SC)nc1Nc1ccc2cn[nH]c2c1` registered a melting point of 212 to 214 °C.

`O=C(CCCCC1CCSS1)N1CCc2ccccc21` (centres undefined) displayed a melting point of 65 to 66 °C.

As for `COc1cccc(Nc2nc(-c3ccccc3)c(C(=O)c3sc(Nc4cccc(OC)c4)nc3-c3ccccc3)s2)c1`, the melting point is more than 285 °C.

`CC1(C)C(=O)Nc2ccc(-c3cccc(Cl)c3)cc21` had a melting point of 188 to 189 °C.

As for `Cc1cc(=O)n(C)c2c1C(=O)CC(c1ccsc1)C2` (centres undefined), the melting point is 156 to 157 °C.

`Cc1cccc(C2(O)c3cc(NC(=O)CC(C)(C)C)c(C)c(C)c3OC2(C)C)c1` (centres undefined): the melting point was in the range of 113 to 114 °C.

`O=Cc1ccc2c(c1)C1(c3ccccc3-2)c2ccccc2-c2ccc(CO)cc21` (centres undefined): the melting point lay in the range of 262 to 263 °C.

With `CC(=O)c1ccc2c(c1)CCc1ccccc1-2`, the melting point was in the range of 58 to 60 °C.

Take `Nc1ccc2oc3c(OC(F)F)ccc(C(=O)Nc4c(Cl)cncc4Cl)c3c2c1`: the melting point is 87 to 89 °C.

One may read the melting point as the temperature of the solid-liquid transition.
